Source: patent US7304174B2, “CaSR antagonist” (Japan Tobacco Inc., priority 2003, dated 2007)

Target: T1, human calcium receptor (Homo sapiens, UniProt P41180)
T1 construct: expressed in transfected cells; host or cells: cell strain derived from rat adrenal, co-transformed with luciferase cDNA
T1 sequence (P41180 20-1078): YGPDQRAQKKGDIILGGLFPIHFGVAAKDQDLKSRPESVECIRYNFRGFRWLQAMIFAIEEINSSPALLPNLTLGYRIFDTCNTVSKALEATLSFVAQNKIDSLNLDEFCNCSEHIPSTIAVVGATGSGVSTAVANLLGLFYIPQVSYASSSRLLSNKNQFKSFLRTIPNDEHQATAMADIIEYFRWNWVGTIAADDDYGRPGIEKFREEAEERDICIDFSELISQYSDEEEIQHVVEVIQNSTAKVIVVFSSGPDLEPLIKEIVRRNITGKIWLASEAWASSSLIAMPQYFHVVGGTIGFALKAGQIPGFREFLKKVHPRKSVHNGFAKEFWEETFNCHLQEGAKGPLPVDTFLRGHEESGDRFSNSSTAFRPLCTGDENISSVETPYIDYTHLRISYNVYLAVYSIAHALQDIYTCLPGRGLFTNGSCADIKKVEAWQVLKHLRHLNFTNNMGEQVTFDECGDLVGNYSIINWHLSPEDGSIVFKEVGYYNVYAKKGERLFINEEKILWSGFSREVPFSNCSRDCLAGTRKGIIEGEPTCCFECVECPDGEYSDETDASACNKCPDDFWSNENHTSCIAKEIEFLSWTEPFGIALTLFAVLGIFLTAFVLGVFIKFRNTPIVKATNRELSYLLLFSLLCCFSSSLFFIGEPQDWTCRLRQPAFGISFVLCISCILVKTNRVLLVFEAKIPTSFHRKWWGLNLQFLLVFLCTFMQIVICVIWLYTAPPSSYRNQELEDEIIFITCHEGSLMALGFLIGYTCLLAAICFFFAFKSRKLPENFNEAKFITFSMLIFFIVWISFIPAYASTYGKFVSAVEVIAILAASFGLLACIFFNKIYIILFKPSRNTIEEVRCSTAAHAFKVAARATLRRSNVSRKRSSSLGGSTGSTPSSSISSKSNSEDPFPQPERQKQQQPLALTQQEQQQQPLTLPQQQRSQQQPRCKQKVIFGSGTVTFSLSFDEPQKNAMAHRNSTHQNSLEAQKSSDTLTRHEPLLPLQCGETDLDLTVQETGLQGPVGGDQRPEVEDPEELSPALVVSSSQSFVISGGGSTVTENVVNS
Test: Evaluation of antagonistic action on calcium receptor using reporter gene (luciferase)
Assay type: cell-based
Details: transformed rat adrenal derived cells, 5 mM calcium chloride, culture 4 hrs, luciferase activity; read-out: Reporter gene assay (IC50, concentration showing 50% inhibitory rate)
Summary of the method: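 Rat adrenal-derived cells transfected with luciferase and human calcium receptor cDNA, in F12 with 0.5% dialyzed horse serum and 0.25% dialyzed fetal bovine serum. Luciferase luminescence gave % inhibition vs control and blank; IC50 at 50% inhibition.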

| IC50 [nM] | Compound |
| --- | --- |
| 26 | Cc1cc(-c2ccccc2[C@@H](C)OC[C@H](O)CNC(C)(C)Cc2ccc(Cl)cc2F)ccc1C(=O)O [Example 1-110] |
| 71 | COC(=O)c1ccc(Oc2ccccc2C(C)OC[C@H](O)CNC(C)(C)Cc2ccc3ccccc3c2)cc1 (stereo partly drawn) [Example 2-3, methyl 4-[2-[1-[(2R)-3-[[1-(naphthalen-2-yl)-2-methylpropan-2-yl]amino]-2-hydroxypropoxy]ethyl]phenoxy]benzoate] |
| 22 | CC(OC[C@H](O)CNC(C)(C)Cc1ccc(Cl)cc1F)c1ccccc1Oc1ccc(C(=O)O)cc1 (stereo partly drawn) [Example 2-6, 4-[2-[1-[(2R)-3-[[1-(4-chloro-2-fluorophenyl)-2-methylpropan-2-yl]amino]-2-hydroxypropoxy]ethyl]phenoxy]benzoic acid] |
| 17 | Cc1ccc(CC(C)(C)NC[C@@H](O)COC(C)c2ccccc2Oc2ccc(C(=O)O)cc2)cc1F (stereo partly drawn) [Example 2-7, 4-[2-[1-[(2R)-3-[[1-(3-fluoro-4-methylphenyl)-2-methylpropan-2-yl]amino]-2-hydroxypropoxy]ethyl]phenoxy]benzoic acid] |
| 27 | CC(OC[C@H](O)CNC(C)(C)Cc1ccc2ccccc2c1)c1ccccc1Sc1cccc(C(=O)O)c1 (stereo partly drawn) [Example 2-10, 3-[2-[1-[(2R)-3-[[1-(naphthalen-2-yl)-2-methylpropan-2-yl]amino]-2-hydroxypropoxy]ethyl]phenylthio]benzoic acid] |
| 236 | CC(OC[C@H](O)CNC(C)(C)Cc1ccc2ccccc2c1)c1ccccc1S(=O)(=O)c1ccc(C(=O)O)cc1 (stereo partly drawn) [Example 2-18, 4-[2-[1-[(2R)-3-[[1-(naphthalen-2-yl)-2-methylpropan-2-yl]amino]-2-hydroxypropoxy]ethyl]phenylsulfonyl]benzoic acid] |
| 29 | CC(OC[C@H](O)CNC(C)(C)Cc1ccc2ccccc2c1)c1ccccc1NCc1ccc(C(=O)O)cc1 (stereo partly drawn) [Example 2-19, 4-[[2-[1-[(2R)-3-[[1-(naphthalen-2-yl)-2-methylpropan-2-yl]amino]-2-hydroxypropoxy]ethyl]phenylamino]methyl]benzoic acid] |
| 20 | CC(OC[C@H](O)CNC(C)(C)Cc1ccc2ccccc2c1)c1ccccc1OCc1ccccc1C(=O)O (stereo partly drawn) [Example 2-20, 2-[[2-[1-[(2R)-3-[[1-(naphthalen-2-yl)-2-methylpropan-2-yl]amino]-2-hydroxypropoxy]ethyl]phenoxy]methyl]benzoic acid] |
| 17 | C[C@@H](OC[C@H](O)CNC(C)(C)Cc1ccc2ccccc2c1)c1ccccc1OCc1ccc(C(=O)O)cc1 [Example 2-22, 4-[[2-[1-[(2R)-3-[[1-(naphthalen-2-yl)-2-methylpropan-2-yl]amino]-2-hydroxypropoxy]ethyl]phenoxy]methyl]benzoic acid] |
| 27 | Cc1ccc(CC(C)(C)NC[C@@H](O)CO[C@H](C)c2ccccc2OCc2cccc(C(=O)O)c2)cc1F [Example 2-23, 3-[[2-[1-[(2R)-3-[[1-(3-fluoro-4-methylphenyl)-2-methylpropan-2-yl]amino]-2-hydroxypropoxy]ethyl]phenoxy]methyl]benzoic acid] |
| 65 | Cc1ccc(CC(C)(C)NC[C@@H](O)CO[C@H](C)c2ccccc2OCc2ccc(C(=O)O)cc2F)cc1F [Example 2-25, 3-fluoro-4-[[2-[1-[(2R)-3-[[1-(3-fluoro-4-methylphenyl)-2-methylpropan-2-yl]amino]-2-hydroxypropoxy]ethyl]phenoxy]methyl]benzoic acid] |
| 24 | Cc1ccc(CC(C)(C)NC[C@@H](O)CO[C@H](C)c2ccccc2OCc2ccc(C(=O)O)cc2C)cc1F [Example 2-26, 4-[[2-[1-[(2R)-3-[[1-(3-fluoro-4-methylphenyl)-2-methylpropan-2-yl]amino]-2-hydroxypropoxy]ethyl]phenoxy]methyl]-3-methylbenzoic acid] |
| 27 | COc1cc(C(=O)O)cc(OC)c1Oc1ccccc1C(C)OC[C@H](O)CNC(C)(C)Cc1ccc(C)c(F)c1 (stereo partly drawn) [Example 2-27, 4-[2-[1-[(2R)-3-[[1-(3-fluoro-4-methylphenyl)-2-methylpropan-2-yl]amino]-2-hydroxypropoxy]ethyl]phenoxy]-3,5-dimethoxybenzoic acid] |
| 3 | Cc1ccc(CC(C)(C)NC[C@@H](O)CO[C@H](C)c2ccccc2Oc2ccc(C(=O)O)cc2[N+](=O)[O-])cc1F [Example 2-28, 4-[2-[1-[(2R)-3-[[1-(3-fluoro-4-methylphenyl)-2-methylpropan-2-yl]amino]-2-hydroxypropoxy]ethyl]phenoxy]-3-nitrobenzoic acid] |

More lines, now with the values behind:

| Compound | IC50 [nM] |
| --- | --- |
| CC(OC[C@H](O)CNC(C)(C)Cc1ccc2ccccc2c1)c1ccccc1Oc1ccc(C(=O)O)cc1 (stereo partly drawn) [Example 2-4, 4-[2-[1-[(2R)-3-[[1-(naphthalen-2-yl)-2-methylpropan-2-yl]amino]-2-hydroxypropoxy]ethyl]phenoxy]benzoic acid] | 10 |
| Cc1ccc(CC(C)(C)NC[C@@H](O)COC(C)c2ccccc2Oc2cccc(C(=O)O)c2)cc1F (stereo partly drawn) [Example 2-8, 3-[2-[1-[(2R)-3-[[1-(3-fluoro-4-methylphenyl)-2-methylpropan-2-yl]amino]-2-hydroxypropoxy]ethyl]phenoxy]benzoic acid] | 54 |
| CC(OC[C@H](O)CNC(C)(C)Cc1ccc2ccccc2c1)c1ccccc1C=Cc1ccc(C(=O)O)cc1 (stereo partly drawn) [Example 2-9, 4-[2-[2-[1-[(2R)-3-[[1-(naphthalen-2-yl)-2-methylpropan-2-yl]amino]-2-hydroxypropoxy]ethyl]phenyl]vinyl]benzoic acid] | 16 |
| Cc1ccc(CC(C)(C)NC[C@@H](O)COC(C)c2ccccc2C=Cc2ccc(C(=O)O)cc2)cc1F (stereo partly drawn) [Example 2-11, 4-[2-[2-[1-[(2R)-3-[[1-(3-fluoro-4-methylphenyl)-2-methylpropan-2-yl]amino]-2-hydroxypropoxy]ethyl]phenyl]vinyl]benzoic acid] | 21 |
| Cc1ccc(CC(C)(C)NC[C@@H](O)COC(C)c2ccccc2Oc2c(C)cc(C(=O)O)cc2C)cc1F (stereo partly drawn) [Example 2-12, 4-[2-[1-[(2R)-3-[[1-(3-fluoro-4-methylphenyl)-2-methylpropan-2-yl]amino]-2-hydroxypropoxy]ethyl]phenoxy]-3,5-dimethylbenzoic acid] | 5 |
| Cc1cc(C(=O)O)cc(C)c1Oc1ccccc1C(C)OC[C@H](O)CNC(C)(C)Cc1ccc(Cl)cc1F (stereo partly drawn) [Example 2-13, 4-[2-[1-[(2R)-3-[[1-(4-chloro-2-fluorophenyl)-2-methylpropan-2-yl]amino]-2-hydroxypropoxy]ethyl]phenoxy]-3,5-dimethylbenzoic acid] | 22 |
| C[C@@H](OC[C@H](O)CNC(C)(C)Cc1ccc2ccccc2c1)c1ccccc1Cc1ccc(C(=O)O)cc1 [Example 2-14, 4-[2-[1-[(2R)-3-[[1-(naphthalen-2-yl)-2-methylpropan-2-yl]amino]-2-hydroxypropoxy]ethyl]benzyl]benzoic acid] | 53 |
| C[C@@H](OC[C@H](O)CNC(C)(C)Cc1ccc2ccccc2c1)c1ccccc1Cc1cccc(C(=O)O)c1 [Example 2-15, 3-[2-[1-[(2R)-3-[[1-(naphthalen-2-yl)-2-methylpropan-2-yl]amino]-2-hydroxypropoxy]ethyl]benzyl]benzoic acid] | 16 |
| CC(OC[C@H](O)CNC(C)(C)Cc1ccc2ccccc2c1)c1ccccc1Sc1ccc(C(=O)O)cc1 (stereo partly drawn) [Example 2-16, 4-[2-[1-[(2R)-3-[[1-(naphthalen-2-yl)-2-methylpropan-2-yl]amino]-2-hydroxypropoxy]ethyl]phenylthio]benzoic acid] | 14 |
| CC(OC[C@H](O)CNC(C)(C)Cc1ccc2ccccc2c1)c1ccccc1[S+]([O-])c1ccc(C(=O)O)cc1 (stereo partly drawn) [Example 2-17, 4-[2-[1-[(2R)-3-[[1-(naphthalen-2-yl)-2-methylpropan-2-yl]amino]-2-hydroxypropoxy]ethyl]phenylsulfinyl]benzoic acid] | 148 |
| CC(OC[C@H](O)CNC(C)(C)Cc1ccc2ccccc2c1)c1ccccc1OCc1cccc(C(=O)O)c1 (stereo partly drawn) [Example 2-21, 3-[[2-[1-[(2R)-3-[[1-(naphthalen-2-yl)-2-methylpropan-2-yl]amino]-2-hydroxypropoxy]ethyl]phenoxy]methyl]benzoic acid] | 17 |
| Cc1ccc(CC(C)(C)NC[C@@H](O)CO[C@H](C)c2ccccc2OCc2ccc(C(=O)O)cc2)cc1F [Example 2-24, 4-[[2-[1-[(2R)-3-[[1-(3-fluoro-4-methylphenyl)-2-methylpropan-2-yl]amino]-2-hydroxypropoxy]ethyl]phenoxy]methyl]benzoic acid] | 57 |
